{
  "source": "patent US8835415B2",
  "about": "“Standardized composition, method of manufacture and use in the resolution of RNA virus infection” (priority 2009, dated 2014)",
  "key": {"[1]": {"system": "Sheep Red Blood Cells (SRBCs)", "assay_type": "in vivo, Swiss albino mice", "details": "Cyclophosphamide 25 mg/kg p.o alone", "description": "Swiss albino mice of either sex were divided into 5 groups with six animals per group based on the treatment they received.\nOn Day 0, all five groups were sensitized with Sheep Red Blood Cells (SRBCs) containing 1×10^8 cells in normal saline. […] On Day 7, blood samples were collected from each mouse in the five groups by retro orbital puncture for the determination of primary antibody titre. Subsequently on day 7, after the blood withdrawal, the mice were challenged with 0.1 ml of SRBCs into the foot pad. On Day 14, blood samples were collected from each mouse by retro orbital puncture for the determination of secondary antibody titre."}, "HIV-1 (X4 tropic virus)": {"system": "HIV-1 (X4 tropic virus)", "test": "microbe, parasite or virus in culture", "assay_type": "cell-based", "details": "CXCR4 trophic virus, PBMC"}, "HIV-1 (R5 tropic virus)": {"system": "HIV-1 (R5 tropic virus)", "assay_type": "cell-based", "details": "CCR5 trophic virus, PBMC"}, "[2]": {"system": "H1N1 virus, Sensitive strain (676)", "test": "Plaque reduction assay in MDCK cells, H1N1 sensitive strain", "assay_type": "cell-based", "details": "Influenza A virus, Tamiflu"}},
  "data": [
    {"smiles": "O=P1(N(CCCl)CCCl)NCCCO1", "note": "(stereo not drawn) [Cyclophosphamide]", "values": [
      {"measurement": "PRIMARY HA TITRE ON DAY 7", "setting": "[1]", "value": 0.33},
      {"measurement": "SECONDARY HA TITRE ON DAY 14", "setting": "[1]", "value": 6.67}
    ]},
    {"smiles": "Cc1ccc(-c2ccc3c(c2)C=C(C(=O)Nc2ccc(C[N+](C)(C)C4CCOCC4)cc2)CCC3)cc1.[Cl-]", "note": "[Tak-779]", "values": [
      {"measurement": "inhibitory activity (in words)", "setting": "HIV-1 (X4 tropic virus)", "value": "only against CCR5 trophic virus"},
      {"measurement": "EC50", "setting": "HIV-1 (R5 tropic virus)", "value": 0.56, "unit": "nM"}
    ]},
    {"smiles": "c1cc(CN2CCCNCCNCCCNCC2)ccc1CN1CCCNCCNCCCNCC1", "note": "[AMD3100]", "values": [
      {"measurement": "EC50", "setting": "HIV-1 (X4 tropic virus); Human immunodeficiency virus 1", "value": 2.05, "unit": "nM"},
      {"measurement": "inhibitory activity (in words)", "setting": "HIV-1 (R5 tropic virus)", "value": "only against CXCR4 trophic virus"}
    ]},
    {"smiles": "Cc1cn([C@H]2C[C@H](N=[N+]=[N-])[C@@H](CO)O2)c(=O)[nH]c1=O", "note": "[AZT]", "values": [
      {"measurement": "inhibitory activity (in words)", "setting": "HIV-1 (X4 tropic virus)", "value": "exhibited inhibitory activity"},
      {"measurement": "inhibitory activity (in words)", "setting": "HIV-1 (R5 tropic virus)", "value": "exhibited inhibitory activity"}
    ]},
    {"smiles": "CCOC(=O)C1=C[C@@H](OC(CC)CC)[C@H](NC(C)=O)[C@@H](N)C1", "note": "[Tamiflu, Oseltamivir]", "values": [
      {"measurement": "EC50", "setting": "[2]", "value": 4.5, "unit": "nM"}
    ]}
  ]
}
